Assay results from patent publication US11208412B2 (DAEGU-GYEONGBUK MEDICAL INNOVATION FOUNDATION, priority 2017, dated 2021).

Experiments:
Assay in all cases: Kinase selectivity, DiscoverX scanMAX Kinase assay panel (% control)
Format in all cases: binding
[1] = target: T1, kinases of the scanMAX Kinase assay panel (Homo sapiens, UniProt O00141); conditions: kinase SGK; 1 uM in DMSO
T1 construct: purchased DiscoverX Co. (contract measurement) scanMAX Kinase assay panel
T1 sequence (O00141 1-431): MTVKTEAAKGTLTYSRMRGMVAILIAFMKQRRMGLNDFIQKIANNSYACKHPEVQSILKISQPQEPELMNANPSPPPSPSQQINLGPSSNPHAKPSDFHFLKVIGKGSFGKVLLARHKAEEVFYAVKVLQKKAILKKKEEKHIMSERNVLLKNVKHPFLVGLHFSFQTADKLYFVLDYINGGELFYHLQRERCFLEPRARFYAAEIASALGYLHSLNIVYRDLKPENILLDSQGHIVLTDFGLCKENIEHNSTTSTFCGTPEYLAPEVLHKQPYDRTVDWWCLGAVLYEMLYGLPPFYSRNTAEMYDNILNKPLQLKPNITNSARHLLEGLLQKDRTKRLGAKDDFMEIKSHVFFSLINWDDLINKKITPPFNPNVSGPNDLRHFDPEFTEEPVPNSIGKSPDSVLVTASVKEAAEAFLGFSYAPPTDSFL
How it was run: (§1)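 Each enzyme is treated with drug at 1 uM in DMSO, then signal is scaled between a positive control (0%) and DMSO (100%) to give % control. Kinases with % control under 35% are scored as inhibited.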

[2] = target: T2, kinases of the scanMAX Kinase assay panel (Homo sapiens, UniProt P10721, A829P); conditions: KIT(A829P); 1 uM
T2 construct: purchased DiscoverX Co. (contract measurement) scanMAX Kinase assay panel
How it was run: as §1

[3] = target: T3, kinases of the scanMAX Kinase assay panel (Homo sapiens, UniProt P21127); conditions: CDC2L1; 1 uM
T3 construct: purchased DiscoverX Co. (contract measurement) scanMAX Kinase assay panel
How it was run: as §1

[4] = target: T4, kinases of the scanMAX Kinase assay panel (Homo sapiens, UniProt P23458); conditions: 1 uM
T4 construct: purchased DiscoverX Co. (contract measurement) scanMAX Kinase assay panel
How it was run: as §1

[5] = target: T5, kinases of the scanMAX Kinase assay panel (Homo sapiens, UniProt P30530); conditions: AXL; 1 uM
T5 construct: purchased DiscoverX Co. (contract measurement) scanMAX Kinase assay panel
T5 sequence (P30530 26-894): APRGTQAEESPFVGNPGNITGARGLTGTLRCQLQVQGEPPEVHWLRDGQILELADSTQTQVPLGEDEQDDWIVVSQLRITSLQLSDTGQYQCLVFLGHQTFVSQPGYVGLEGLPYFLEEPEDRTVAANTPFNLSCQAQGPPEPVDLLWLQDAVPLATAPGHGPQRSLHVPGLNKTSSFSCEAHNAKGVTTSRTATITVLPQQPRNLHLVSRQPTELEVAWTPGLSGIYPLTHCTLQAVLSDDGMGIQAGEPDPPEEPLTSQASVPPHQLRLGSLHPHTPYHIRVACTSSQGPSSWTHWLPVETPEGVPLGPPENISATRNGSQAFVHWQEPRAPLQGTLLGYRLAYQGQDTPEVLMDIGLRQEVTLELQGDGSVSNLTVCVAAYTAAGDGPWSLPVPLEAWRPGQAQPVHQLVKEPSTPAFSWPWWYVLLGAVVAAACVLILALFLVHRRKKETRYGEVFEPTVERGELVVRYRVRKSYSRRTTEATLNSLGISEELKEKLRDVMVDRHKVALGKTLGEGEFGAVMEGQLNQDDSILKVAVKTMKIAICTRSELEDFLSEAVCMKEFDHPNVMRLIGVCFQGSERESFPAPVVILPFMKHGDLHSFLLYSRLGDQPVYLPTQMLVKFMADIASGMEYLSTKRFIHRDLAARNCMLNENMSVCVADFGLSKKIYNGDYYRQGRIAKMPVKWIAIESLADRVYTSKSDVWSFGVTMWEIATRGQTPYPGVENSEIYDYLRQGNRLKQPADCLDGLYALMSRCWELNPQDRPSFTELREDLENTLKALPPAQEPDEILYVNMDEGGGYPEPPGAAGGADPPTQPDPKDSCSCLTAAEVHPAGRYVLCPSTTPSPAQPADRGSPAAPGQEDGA
How it was run: as §1

[6] = target: T6, kinases of the scanMAX Kinase assay panel (Homo sapiens, UniProt P48730); conditions: CSNK1D; 1 uM
T6 construct: purchased DiscoverX Co. (contract measurement) scanMAX Kinase assay panel
How it was run: as §1

[7] = target: T7, kinases of the scanMAX Kinase assay panel (Homo sapiens, UniProt Q8N568); conditions: DCAMKL2; 1 uM
T7 construct: purchased DiscoverX Co. (contract measurement) scanMAX Kinase assay panel
How it was run: as §1

[8] = target: T8, kinases of the scanMAX Kinase assay panel (Homo sapiens, UniProt Q8TDR2); conditions: kinase STK35; 1 uM in DMSO
T8 construct: purchased DiscoverX Co. (contract measurement) scanMAX Kinase assay panel
How it was run: as §1

[9] = target: T9, kinases of the scanMAX Kinase assay panel (Homo sapiens, UniProt Q9BUB5); conditions: MKNK1; 1 uM
T9 construct: purchased DiscoverX Co. (contract measurement) scanMAX Kinase assay panel
How it was run: as §1

[10] = target: T10, kinases of the scanMAX Kinase assay panel (Homo sapiens, UniProt Q9P2K8, S808G); conditions: GCN2(Kin.Dom.2, S808G); 1 uM
T10 construct: purchased DiscoverX Co. (contract measurement) scanMAX Kinase assay panel
How it was run: as §1

T3 sequence (P21127 whole entry): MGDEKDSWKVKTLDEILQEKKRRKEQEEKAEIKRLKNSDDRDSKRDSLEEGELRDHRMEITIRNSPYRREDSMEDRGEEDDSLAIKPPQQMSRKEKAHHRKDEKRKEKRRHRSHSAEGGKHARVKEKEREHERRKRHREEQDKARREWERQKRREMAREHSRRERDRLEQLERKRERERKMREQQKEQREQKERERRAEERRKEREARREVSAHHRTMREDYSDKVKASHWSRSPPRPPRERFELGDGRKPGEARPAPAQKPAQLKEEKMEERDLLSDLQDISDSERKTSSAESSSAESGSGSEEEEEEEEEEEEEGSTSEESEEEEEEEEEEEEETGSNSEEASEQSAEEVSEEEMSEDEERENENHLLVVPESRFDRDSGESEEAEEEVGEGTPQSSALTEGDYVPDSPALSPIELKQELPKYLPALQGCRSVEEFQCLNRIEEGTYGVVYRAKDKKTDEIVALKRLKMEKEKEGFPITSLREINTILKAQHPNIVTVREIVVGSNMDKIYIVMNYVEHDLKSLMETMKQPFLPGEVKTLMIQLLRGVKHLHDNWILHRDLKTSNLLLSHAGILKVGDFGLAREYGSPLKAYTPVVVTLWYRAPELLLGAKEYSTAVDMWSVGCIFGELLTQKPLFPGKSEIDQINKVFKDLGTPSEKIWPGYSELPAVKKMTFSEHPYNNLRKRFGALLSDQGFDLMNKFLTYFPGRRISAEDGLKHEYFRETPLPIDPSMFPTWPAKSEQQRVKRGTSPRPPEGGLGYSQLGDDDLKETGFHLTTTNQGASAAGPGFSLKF
T6 sequence (P48730 whole entry): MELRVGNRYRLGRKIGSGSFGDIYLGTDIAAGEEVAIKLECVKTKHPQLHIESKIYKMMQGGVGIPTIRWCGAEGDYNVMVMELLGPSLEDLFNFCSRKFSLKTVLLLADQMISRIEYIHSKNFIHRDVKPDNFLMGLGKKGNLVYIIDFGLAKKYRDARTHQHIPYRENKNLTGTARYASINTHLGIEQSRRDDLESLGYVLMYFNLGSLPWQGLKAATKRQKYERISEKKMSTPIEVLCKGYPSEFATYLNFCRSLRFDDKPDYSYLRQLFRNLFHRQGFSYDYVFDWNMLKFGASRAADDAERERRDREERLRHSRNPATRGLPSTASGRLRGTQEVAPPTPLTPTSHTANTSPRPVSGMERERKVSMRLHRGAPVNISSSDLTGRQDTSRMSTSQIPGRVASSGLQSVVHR
T8 sequence (Q8TDR2 whole entry): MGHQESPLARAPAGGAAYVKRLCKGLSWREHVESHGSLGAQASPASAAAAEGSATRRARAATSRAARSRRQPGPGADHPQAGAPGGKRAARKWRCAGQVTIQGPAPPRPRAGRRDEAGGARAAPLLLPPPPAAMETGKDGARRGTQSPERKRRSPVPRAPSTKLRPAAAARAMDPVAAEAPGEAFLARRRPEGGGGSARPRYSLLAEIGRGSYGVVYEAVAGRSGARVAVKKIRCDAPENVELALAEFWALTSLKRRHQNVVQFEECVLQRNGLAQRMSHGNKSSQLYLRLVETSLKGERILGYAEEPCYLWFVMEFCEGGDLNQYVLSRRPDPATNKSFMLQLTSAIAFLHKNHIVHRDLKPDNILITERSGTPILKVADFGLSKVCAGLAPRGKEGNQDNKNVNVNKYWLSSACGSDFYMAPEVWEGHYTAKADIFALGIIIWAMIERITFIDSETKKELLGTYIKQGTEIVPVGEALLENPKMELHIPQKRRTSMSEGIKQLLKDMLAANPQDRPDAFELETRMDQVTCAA
T10 sequence (Q9P2K8 whole entry S808G): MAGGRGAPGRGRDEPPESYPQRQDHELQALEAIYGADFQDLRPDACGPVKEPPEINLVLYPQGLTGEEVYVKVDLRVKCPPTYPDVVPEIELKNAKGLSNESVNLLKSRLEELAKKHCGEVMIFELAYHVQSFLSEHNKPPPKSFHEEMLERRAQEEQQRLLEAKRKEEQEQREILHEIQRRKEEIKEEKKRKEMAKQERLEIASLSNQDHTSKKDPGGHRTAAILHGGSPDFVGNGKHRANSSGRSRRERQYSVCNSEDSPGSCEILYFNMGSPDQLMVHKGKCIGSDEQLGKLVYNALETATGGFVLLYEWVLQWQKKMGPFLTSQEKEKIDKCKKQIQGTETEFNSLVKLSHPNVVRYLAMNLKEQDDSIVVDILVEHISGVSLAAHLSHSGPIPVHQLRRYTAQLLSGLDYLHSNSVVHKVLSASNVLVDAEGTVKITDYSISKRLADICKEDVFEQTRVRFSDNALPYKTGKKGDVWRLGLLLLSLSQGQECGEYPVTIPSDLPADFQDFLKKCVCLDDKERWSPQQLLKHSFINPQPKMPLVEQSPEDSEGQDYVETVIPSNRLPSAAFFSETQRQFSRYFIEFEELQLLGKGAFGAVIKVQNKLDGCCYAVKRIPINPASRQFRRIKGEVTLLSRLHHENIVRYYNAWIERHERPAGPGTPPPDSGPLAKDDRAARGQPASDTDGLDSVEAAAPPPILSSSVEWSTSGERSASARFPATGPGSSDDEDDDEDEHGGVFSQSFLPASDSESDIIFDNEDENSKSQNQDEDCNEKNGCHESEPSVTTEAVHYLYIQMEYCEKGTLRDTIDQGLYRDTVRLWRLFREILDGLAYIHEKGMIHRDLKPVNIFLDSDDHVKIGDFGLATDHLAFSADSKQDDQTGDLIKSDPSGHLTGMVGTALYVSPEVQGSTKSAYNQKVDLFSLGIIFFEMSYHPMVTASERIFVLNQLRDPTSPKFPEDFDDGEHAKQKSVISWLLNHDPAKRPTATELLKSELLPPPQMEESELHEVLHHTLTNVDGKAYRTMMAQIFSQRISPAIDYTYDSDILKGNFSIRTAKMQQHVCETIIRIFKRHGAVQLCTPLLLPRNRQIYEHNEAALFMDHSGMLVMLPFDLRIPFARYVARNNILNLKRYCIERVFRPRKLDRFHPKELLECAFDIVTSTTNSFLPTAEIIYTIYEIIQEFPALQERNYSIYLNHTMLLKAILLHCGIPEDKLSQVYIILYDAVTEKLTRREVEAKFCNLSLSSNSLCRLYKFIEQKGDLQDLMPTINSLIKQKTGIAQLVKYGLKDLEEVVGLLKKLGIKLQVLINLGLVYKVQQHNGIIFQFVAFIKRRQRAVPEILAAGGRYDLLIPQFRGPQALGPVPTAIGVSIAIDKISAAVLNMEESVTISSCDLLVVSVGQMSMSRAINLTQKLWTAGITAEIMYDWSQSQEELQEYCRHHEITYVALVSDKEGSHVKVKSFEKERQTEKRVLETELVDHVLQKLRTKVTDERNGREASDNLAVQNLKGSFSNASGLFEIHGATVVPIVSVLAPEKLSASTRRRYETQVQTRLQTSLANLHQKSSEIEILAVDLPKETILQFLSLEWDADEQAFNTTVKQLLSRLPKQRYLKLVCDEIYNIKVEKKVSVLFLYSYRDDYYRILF
T9 sequence (Q9BUB5 whole entry): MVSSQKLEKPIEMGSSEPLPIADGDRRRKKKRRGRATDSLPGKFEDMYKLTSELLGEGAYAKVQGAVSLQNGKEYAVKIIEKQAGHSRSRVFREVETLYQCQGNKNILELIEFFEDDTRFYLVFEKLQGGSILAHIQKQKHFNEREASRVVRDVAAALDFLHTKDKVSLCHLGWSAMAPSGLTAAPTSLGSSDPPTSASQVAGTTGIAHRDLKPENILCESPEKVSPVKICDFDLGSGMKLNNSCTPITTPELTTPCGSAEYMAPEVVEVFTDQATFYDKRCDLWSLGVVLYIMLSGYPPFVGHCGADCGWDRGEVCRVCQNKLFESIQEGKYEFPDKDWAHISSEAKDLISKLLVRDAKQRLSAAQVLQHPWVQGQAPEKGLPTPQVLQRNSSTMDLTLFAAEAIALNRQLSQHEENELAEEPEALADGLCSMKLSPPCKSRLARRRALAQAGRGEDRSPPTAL
T7 sequence (Q8N568 whole entry): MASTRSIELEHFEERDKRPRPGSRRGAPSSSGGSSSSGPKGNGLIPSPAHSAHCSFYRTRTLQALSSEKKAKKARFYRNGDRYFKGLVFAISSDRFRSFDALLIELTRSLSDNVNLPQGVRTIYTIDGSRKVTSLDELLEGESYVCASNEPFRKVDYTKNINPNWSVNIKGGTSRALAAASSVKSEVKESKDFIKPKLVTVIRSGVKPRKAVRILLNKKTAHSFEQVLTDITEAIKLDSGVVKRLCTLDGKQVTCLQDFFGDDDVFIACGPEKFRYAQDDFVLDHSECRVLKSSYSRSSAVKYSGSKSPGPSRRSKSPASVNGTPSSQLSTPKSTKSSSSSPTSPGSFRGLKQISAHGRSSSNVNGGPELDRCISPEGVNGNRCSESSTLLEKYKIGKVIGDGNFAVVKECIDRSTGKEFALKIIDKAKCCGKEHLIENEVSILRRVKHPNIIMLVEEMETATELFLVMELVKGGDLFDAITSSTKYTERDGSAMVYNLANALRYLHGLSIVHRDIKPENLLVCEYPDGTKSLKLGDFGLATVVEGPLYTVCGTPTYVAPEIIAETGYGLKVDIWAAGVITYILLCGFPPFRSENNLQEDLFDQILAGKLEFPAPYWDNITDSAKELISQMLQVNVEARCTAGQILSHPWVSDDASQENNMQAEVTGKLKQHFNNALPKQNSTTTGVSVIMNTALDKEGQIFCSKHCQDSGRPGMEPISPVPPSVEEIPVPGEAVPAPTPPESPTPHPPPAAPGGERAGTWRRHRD

| SMILES | remaining binding at 1 µM [1] [%] | remaining binding at 1 µM [2] [%] | remaining binding at 1 µM [3] [%] | remaining binding at 1 µM ([4]; JAK1(JH1domain-catalytic)) [%] | remaining binding at 1 µM ([4]; JAK1(JH2domain-pseudokinase)) [%] | remaining binding at 1 µM [5] [%] | remaining binding at 1 µM [6] [%] | remaining binding at 1 µM [7] [%] | remaining binding at 1 µM [8] [%] | remaining binding at 1 µM [9] [%] | remaining binding at 1 µM [10] [%] |
| --- | --- | --- | --- | --- | --- | --- | --- | --- | --- | --- | --- |
| CCNc1nc(Nc2ccc(C(=O)N3CCC(N4CCOCC4)CC3)cc2OC)nc2[nH]cc(C(F)(F)F)c12 [Example 104, (4-((4-(ethylamino)-5-(trifluoromethyl)-7H-pyrrolo[2,3-d]pyrimidine-2-yl)amino)-3-methoxyphenyl)(4-morpholinopiperidine-1-yl)methanone] | 100 | 100 | 99 | 100 | 55 | 69 | 2.6 | 93 | 100 | 100 | 64 |
| CC1(Nc2nc(Nc3cnn([C@H]4CCN(C5COC5)C[C@@H]4F)c3Cl)nc3[nH]cc(C#N)c23)CC1 [Example 52, 2-((5-chloro-1-((3S,4S)-3-fluoro-1-(oxetane-3-yl)piperidine-4-yl)-1H-pyrazole-4-yl)amino)((1-methylcyclopropyl)amino)-7H-pyrrolo[2,3-d]pyrimidine-5-carbonitrile] | 18 | 11 | 84 | 44 | 0 | 0 | 1 | 76 | 14 | 100 | 33 |
| CNc1nc(Nc2ccc(C(=O)N3CCOCC3)cc2OC)nc2[nH]cc(C#N)c12 [Example 1, 2-((2-methoxy-4-(morpholine-4-carbonyl)phenyl)amino)-4-(methylamino)-7H-pyrrolo[2,3-d]pyrimidine-5-carbonitrile] | 48 | 60 | 100 | 92 | 14 | 90 | 5 | 91 | 100 | 62 | 93 |
